Results published in patent US20260092074A1, “Annelated Pyridines as Steroidogenesis Inhibitors, Preparation Method and Use Thereof” (Guangzhou Vinnocent Pharmaceutical Limited, priority 2022, published 2026).

What was measured:
human CYP11B1 = target: T1, human CYP11B1 (Homo sapiens, UniProt P15538); test: Inhibition of hCYP11B1 in transfected V79 cells; assay type: cell-based; settings: hamster V79 cells expressing human CYP11B1; substrate 11-deoxycortisol 200 nM
T1 construct: expressed in transfected cells
T1 sequence (P15538 25-503): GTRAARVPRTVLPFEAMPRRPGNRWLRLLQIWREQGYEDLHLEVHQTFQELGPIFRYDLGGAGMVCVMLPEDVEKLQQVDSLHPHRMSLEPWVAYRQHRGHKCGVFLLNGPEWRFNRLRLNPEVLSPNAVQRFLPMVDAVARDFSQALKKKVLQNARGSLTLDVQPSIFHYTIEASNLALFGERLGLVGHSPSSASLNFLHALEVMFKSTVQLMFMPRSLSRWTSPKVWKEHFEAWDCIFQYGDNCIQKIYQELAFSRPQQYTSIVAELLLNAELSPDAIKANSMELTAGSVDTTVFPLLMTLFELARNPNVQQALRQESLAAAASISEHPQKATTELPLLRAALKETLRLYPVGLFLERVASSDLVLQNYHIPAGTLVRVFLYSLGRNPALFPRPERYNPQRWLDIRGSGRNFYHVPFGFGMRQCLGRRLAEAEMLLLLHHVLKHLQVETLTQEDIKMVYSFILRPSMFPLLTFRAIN
Summary of the method: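 Reactions started with 200 nM 11-deoxycortisol, ran for 30 min and were stopped with ethyl acetate, after a 2 h compound preincubation. The host was stably transfected V79 hamster cells carrying human CYP11B1 plus rat P450 reductase. Percent inhibition, from LC-MS/MS or HPLC (260 nm) quantitation of substrate and product, gave the IC50.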

human CYP11B2 = target: T2, human CYP11B2 (Homo sapiens, UniProt P19099); test: Inhibition of hCYP11B2 in transfected V79 cells; assay type: cell-based; settings: hamster V79 cells expressing human CYP11B2; substrate 11-deoxycorticosterone 200 nM
T2 construct: expressed in transfected cells
T2 sequence (P19099 25-503): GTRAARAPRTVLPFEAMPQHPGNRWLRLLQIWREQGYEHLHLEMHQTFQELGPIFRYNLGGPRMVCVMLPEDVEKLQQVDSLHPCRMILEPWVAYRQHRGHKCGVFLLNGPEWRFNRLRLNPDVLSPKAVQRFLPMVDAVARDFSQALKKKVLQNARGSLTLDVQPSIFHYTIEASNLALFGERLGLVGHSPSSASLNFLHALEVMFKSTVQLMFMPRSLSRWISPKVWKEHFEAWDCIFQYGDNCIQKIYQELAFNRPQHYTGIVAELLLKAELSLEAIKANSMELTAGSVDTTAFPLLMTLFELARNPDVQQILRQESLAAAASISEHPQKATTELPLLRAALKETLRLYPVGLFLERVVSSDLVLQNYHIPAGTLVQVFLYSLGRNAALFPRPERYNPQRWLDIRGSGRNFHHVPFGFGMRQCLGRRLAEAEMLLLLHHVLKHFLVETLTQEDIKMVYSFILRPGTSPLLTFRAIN
Summary of the method: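 The substrate (200 nM, 30 min) was added after a 2 hour compound pre-incubation in lentivirus-transduced V79 cells stably expressing human CYP11B2 plus rat NADPH-P450 reductase.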

IC50 (human CYP11B1) [nM]	IC50 (human CYP11B2) [nM]	Compound
0.6	0.1	N#Cc1ccc(-c2cncc3c2ccn3S(=O)(=O)c2ccc(Cl)cc2)cc1 [E8, 4-(1-((4-Chlorophenyl)sulfonyl)-1H-pyrrolo[2,3-c]pyridin-4-yl)benzonitrile]
0.3	0.1	COc1ccc(S(=O)(=O)n2ccc3c(-c4ccc(C#N)cc4)cncc32)cc1 [E9, 4-(1-((4-Methoxyphenyl)sulfonyl)-1H-pyrrolo[2,3-c]pyridin-4-yl)benzonitrile]
0.3	0.6	N#Cc1ccc(-c2cncc3c2ccn3S(=O)(=O)c2cccc(C#N)c2)cc1 [E10, 3-((4-(4-Cyanophenyl)-1H-pyrrolo[2,3-c]pyridin-1-yl)sulfonyl)benzonitrile]
0.2	0.1	N#Cc1ccc(-c2cncc3c2ccn3S(=O)(=O)c2cccc(Cl)c2)cc1 [E11, 4-(1-((3-Chlorophenyl)sulfonyl)-1H-pyrrolo[2,3-c]pyridin-4-yl)benzonitrile]
0.5	0.3	N#Cc1ccc(-c2cncc3c2ccn3S(=O)(=O)c2cccc(F)c2)cc1 [E12, 4-(1-((3-Fluorophenyl)sulfonyl)-1H-pyrrolo[2,3-c]pyridin-4-yl)benzonitrile]
0.5	0.3	N#Cc1ccc(-c2cncc3c2ccn3S(=O)(=O)c2cccc([N+](=O)[O-])c2)cc1 [E13, 4-(1-((3-Nitrophenyl)sulfonyl)-1H-pyrrolo[2,3-c]pyridin-4-yl)benzonitrile]
0.5	0.08	N#Cc1ccc(-c2cncc3c2ccn3S(=O)(=O)c2ccc(C#N)cc2)cc1 [E14, 4-((4-(4-Cyanophenyl)-1H-pyrrolo[2,3-c]pyridin-1-yl)sulfonyl)benzonitrile]
0.7	0.4	N#Cc1ccc(-c2cncc3c2ccn3S(=O)(=O)c2cccc3ccccc23)cc1 [E15, 4-(1-(Naphthalen-1-ylsulfonyl)-1H-pyrrolo[2,3-c]pyridin-4-yl)benzonitrile]
0.6	0.1	N#Cc1ccc(-c2cncc3c2ccn3S(=O)(=O)c2ccc3ccccc3c2)cc1 [E16, 4-(1-(Naphthalen-2-ylsulfonyl)-1H-pyrrolo[2,3-c]pyridin-4-yl)benzonitrile]
0.7	0.1	N#Cc1ccc(-c2cncc3c2ccn3S(=O)(=O)c2cccs2)cc1 [E17, 4-(1-(Thiophen-2-ylsulfonyl)-1H-pyrrolo[2,3-c]pyridin-4-yl)benzonitrile]
3.8	1.2	N#Cc1ccc(-c2cncc3c2ccn3S(=O)(=O)c2ccc(Cl)nc2)cc1 [E18, 4-(1-((6-Chloropyridin-3-yl)sulfonyl)-1H-pyrrolo[2,3-c]pyridin-4-yl)benzonitrile]
2.9	2.5	N#Cc1ccc(-c2cncc3c2ccn3C(=O)c2c(F)c(F)c(F)c(F)c2F)cc1 [E19, 4-(1-(Perfluorobenzoyl)-1H-pyrrolo[2,3-c]pyridin-4-yl)benzonitrile]
65	0.8	N#Cc1ccc(-c2cncc3c2ccn3C(=O)c2ccc(C(F)(F)F)cc2)cc1 [E20, 4-(1-(4-(Trifluoromethyl)benzoyl)-1H-pyrrolo[2,3-c]pyridin-4-yl)benzonitrile]
5	4	N#Cc1ccc(-c2cncc3c2ccn3C(=O)c2ccccc2I)cc1 [E21, 4-(1-(2-iodobenzoyl)-1H-pyrrolo[2,3-c]pyridin-4-yl)benzonitrile]
21	0.6	N#Cc1ccc(-c2cncc3c2ccn3C(=O)c2cccc([N+](=O)[O-])c2)cc1 [E22, 4-(1-(3-Nitrobenzoyl)-1H-pyrrolo[2,3-c]pyridin-4-yl)benzonitrile]
79	0.8	N#Cc1ccc(-c2cncc3c2ccn3C(=O)c2cccc(C(F)(F)F)c2)cc1 [E23, 4-(1-(3-(Trifluoromethyl)benzoyl)-1H-pyrrolo[2,3-c]pyridin-4-yl)benzonitrile]
82	1.9	COc1cccc(C(=O)n2ccc3c(-c4ccc(C#N)cc4)cncc32)c1 [E24, 4-(1-(3-Methoxybenzoyl)-1H-pyrrolo[2,3-c]pyridin-4-yl)benzonitrile]

IC50 (human CYP11B1) [nM]	IC50 (human CYP11B2) [nM]	Compound
98	2.1	COc1ccccc1C(=O)n1ccc2c(-c3ccc(C#N)cc3)cncc21 [E25, 4-(1-(2-Methoxybenzoyl)-1H-pyrrolo[2,3-c]pyridin-4-yl)benzonitrile]
88	3.9	N#Cc1ccc(-c2cncc3c2ccn3C(=O)c2ccccc2C(F)(F)F)cc1 [E26, 4-(1-(2-(Trifluoromethyl)benzoyl)-1H-pyrrolo[2,3-c]pyridin-4-yl)benzonitrile]
73	1.5	Cc1ccccc1C(=O)n1ccc2c(-c3ccc(C#N)cc3)cncc21 [E27, 4-(1-(2-Methylbenzoyl)-1H-pyrrolo[2,3-c]pyridin-4-yl)benzonitrile]
17	2.1	N#Cc1ccc(-c2cncc3c2ccn3C(=O)c2ccccc2F)cc1 [E28, 4-(1-(2-Fluorobenzoyl)-1H-pyrrolo[2,3-c]pyridin-4-yl)benzonitrile]
9	2.5	N#Cc1ccc(-c2cncc3c2ccn3C(=O)c2ccccc2[N+](=O)[O-])cc1 [E29, 4-(1-(2-Nitrobenzoyl)-1H-pyrrolo[2,3-c]pyridin-4-yl)benzonitrile]
11	0.1	N#Cc1ccc(-c2cncc3c2ccn3C(=O)c2ccc(F)cc2)cc1 [E30, 4-(1-(4-Fluorobenzoyl)-1H-pyrrolo[2,3-c]pyridin-4-yl)benzonitrile]
635	10	O=C(c1ccc(F)cc1)n1ccc2c(-c3cc4ccccc4s3)cncc21 [E31, (4-(Benzo[b]thiophen-2-yl)-1H-pyrrolo[2,3-c]pyridin-1-yl)(4-fluorophenyl)methanone]
269	13	O=C(c1ccc(F)cc1)n1ccc2c(-c3cc4ccccc4o3)cncc21 [E32, (4-(Benzofuran-2-yl)-1H-pyrrolo[2,3-c]pyridin-1-yl)(4-fluorophenyl)methanone]
673	32	O=C(c1ccc(F)cc1)n1ccc2c(-c3ccc4occc4c3)cncc21 [E33, (4-(Benzofuran-5-yl)-1H-pyrrolo[2,3-c]pyridin-1-yl)(4-fluorophenyl)methanone]
375	5	O=C(c1ccc(F)cc1)n1ccc2c(-c3cc4ccccc4[nH]3)cncc21 [E34, (4-(1H-Indol-2-yl)-1H-pyrrolo[2,3-c]pyridin-1-yl)(4-fluorophenyl)methanone]
857	17	Cn1ncc2ccc(-c3cncc4c3ccn4C(=O)c3ccc(F)cc3)cc21 [E35, (4-Fluorophenyl)(4-(1-methyl-1H-indazol-6-yl)-1H-pyrrolo[2,3-c]pyridin-1-yl)methanone]
1980	29	O=C(c1ccc(F)cc1)n1ccc2c(-c3ccc4ncsc4c3)cncc21 [E36, (4-(Benzo[d]thiazol-6-yl)-1H-pyrrolo[2,3-c]pyridin-1-yl)(4-fluorophenyl)methanone]
455	0.6	O=C(c1ccc(F)cc1)n1ccc2c(-c3ccc4nccn4c3)cncc21 [E37, (4-Fluorophenyl)(4-(imidazo[1,2-a]pyridin-6-yl)-1H-pyrrolo[2,3-c]pyridin-1-yl)methanone]
49	8	O=C(c1ccc(F)cc1)n1ccc2c(-c3ccc4ncoc4c3)cncc21 [E38, (4-(Benzo[d]oxazol-6-yl)-1H-pyrrolo[2,3-c]pyridin-1-yl)(4-fluorophenyl)methanone]
678	12	O=C(c1ccc(F)cc1)n1ccc2c(-c3ccn4ccnc4c3)cncc21 [E39, (4-Fluorophenyl)(4-(imidazo[1,2-a]pyridin-7-yl)-1H-pyrrolo[2,3-c]pyridin-1-yl)methanone]
409	372	Cn1c(=O)c(=O)[nH]c2cncc(-c3ccc(C#N)cc3)c21 [N1, 4-(1-Methyl-2,3-dioxo-1,2,3,4-tetrahydropyrido[3,4-b]pyrazin-8-yl)benzonitrile]
